# According to patent publication US20040063662A1, “Selenophene anti-tumor agents” (priority 1996, published 2004):
# Columns and labels:
# K-562 = test: NCI human tumor cell panel: K-562 (Leukemia); assay type: cell-based
# MOLT-4 = test: NCI human tumor cell panel: MOLT-4 (Leukemia); assay type: cell-based
# SR = test: NCI human tumor cell panel: SR (Leukemia); assay type: cell-based
# A549/ATCC = test: NCI human tumor cell panel: A549/ATCC (Non-Small Cell Lung Cancer); assay type: cell-based
# EKVX = test: NCI human tumor cell panel: EKVX (Non-Small Cell Lung Cancer); assay type: cell-based
# HOP-62 = test: NCI human tumor cell panel: HOP-62 (Non-Small Cell Lung Cancer); assay type: cell-based
# NCI-H23 = test: NCI human tumor cell panel: NCI-H23 (Non-Small Cell Lung Cancer); assay type: cell-based
# NCI-H460 = test: NCI human tumor cell panel: NCI-H460 (Non-Small Cell Lung Cancer); assay type: cell-based
# HCT-116 = test: NCI human tumor cell panel: HCT-116 (Colon Cancer); assay type: cell-based
# HCT-15 = test: NCI human tumor cell panel: HCT-15 (Colon Cancer); assay type: cell-based
# HT29 = test: NCI human tumor cell panel: HT29 (Colon Cancer); assay type: cell-based
# KM12 = test: NCI human tumor cell panel: KM12 (Colon Cancer); assay type: cell-based
# SW-620 = test: NCI human tumor cell panel: SW-620 (Colon Cancer); assay type: cell-based
# SF-295 = test: NCI human tumor cell panel: SF-295 (CNS Cancer); assay type: cell-based
# SNB-75 = test: NCI human tumor cell panel: SNB-75 (CNS Cancer); assay type: cell-based
# LOX IMVI = test: NCI human tumor cell panel: LOX IMVI (Melanoma); assay type: cell-based
# MALME-3M = test: NCI human tumor cell panel: MALME-3M (Melanoma); assay type: cell-based; conditions: Malme-3M
# UACC-257 = test: NCI human tumor cell panel: UACC-257 (Melanoma); assay type: cell-based
# UACC-62 = test: NCI human tumor cell panel: UACC-62 (Melanoma); assay type: cell-based
# IGROV1 = test: NCI human tumor cell panel: IGROV1 (Ovarian Cancer); assay type: cell-based
# OVCAR-4 = test: NCI human tumor cell panel: OVCAR-4 (Ovarian Cancer); assay type: cell-based; conditions: OVCAR-4, read-out: Log10 GI50 (converted)
# OVCAR-5 = test: NCI human tumor cell panel: OVCAR-5 (Ovarian Cancer); assay type: cell-based
# OVCAR-8 = test: NCI human tumor cell panel: OVCAR-8 (Ovarian Cancer); assay type: cell-based
# 786-0 = test: NCI human tumor cell panel: 786-0 (Renal Cancer); assay type: cell-based
# A498 = test: NCI human tumor cell panel: A498 (Renal Cancer); assay type: cell-based
# ACHN = test: NCI human tumor cell panel: ACHN (Renal Cancer); assay type: cell-based
# SN12C = test: NCI human tumor cell panel: SN12C (Renal Cancer); assay type: cell-based
# TK-10 = test: NCI human tumor cell panel: TK-10 (Renal Cancer); assay type: cell-based
# PC-3 = test: NCI human tumor cell panel: PC-3 (Prostate Cancer); assay type: cell-based
# MCF7/ADR-RES = test: NCI human tumor cell panel: MCF7/ADR-RES (Breast Cancer); assay type: cell-based
# HS 578T = test: NCI human tumor cell panel: HS 578T (Breast Cancer); assay type: cell-based
# BT-549 = test: NCI human tumor cell panel: BT-549 (Breast Cancer); assay type: cell-based
# HOP-92 = test: NCI human tumor cell panel: HOP-92 (Non-Small Cell Lung Cancer)
# [1] = read-out: Log10 GI50 (converted)
# [2] = read-out: Log10 TGI (converted)
compound,measurement,setting,value
OCc1ccc(-c2ccc(-c3ccc(CO)[se]3)s2)[se]1 [compound 676632],GI50,"K-562; K562, K-562, read-out: Log10 GI50 (converted)",0.0479 µM
same,IC (TGI),"K-562; K562, K-562, read-out: Log10 TGI (converted)",> 100 µM
same,GI50,"MOLT-4; MOLT-4, read-out: Log10 GI50 (converted)",> 100 µM
same,IC (TGI),"MOLT-4; MOLT-4, read-out: Log10 TGI (converted)",> 100 µM
same,GI50,SR; [1],> 100 µM
same,IC (TGI),SR; [2],> 100 µM
same,GI50,A549/ATCC; [1],2.63 µM
same,IC (TGI),A549/ATCC; [2],> 100 µM
same,GI50,EKVX; [1],50.1 µM
same,IC (TGI),EKVX; [2],> 100 µM
same,GI50,"HOP-62; HOP-62, read-out: Log10 GI50 (converted)",0.0759 µM
same,IC (TGI),"HOP-62; HOP-62, read-out: Log10 TGI (converted)",> 100 µM
same,GI50,"NCI-H23; NCI-H23, read-out: Log10 GI50 (converted)",> 100 µM
same,IC (TGI),"NCI-H23; NCI-H23, read-out: Log10 TGI (converted)",> 100 µM
same,GI50,"NCI-H460; NCI-H460, read-out: Log10 GI50 (converted)",0.0468 µM
same,IC (TGI),"NCI-H460; NCI-H460, read-out: Log10 TGI (converted)",> 100 µM
same,GI50,"HCT-116; HCT-116, read-out: Log10 GI50 (converted)",> 100 µM
same,IC (TGI),"HCT-116; HCT-116, read-out: Log10 TGI (converted)",> 100 µM
same,GI50,"HCT-15; HCT-15, read-out: Log10 GI50 (converted)",0.0447 µM
same,IC (TGI),"HCT-15; HCT-15, read-out: Log10 TGI (converted)",> 100 µM
same,GI50,"HT29; HT-29, HT29, read-out: Log10 GI50 (converted)",> 100 µM
same,IC (TGI),"HT29; HT-29, HT29, read-out: Log10 TGI (converted)",> 100 µM
same,GI50,"KM12; KM12, read-out: Log10 GI50 (converted)",0.537 µM
same,IC (TGI),"KM12; KM12, read-out: Log10 TGI (converted)",> 100 µM
same,GI50,"SW-620; SW-620, read-out: Log10 GI50 (converted)",> 100 µM
same,IC (TGI),"SW-620; SW-620, read-out: Log10 TGI (converted)",> 100 µM
same,GI50,"SF-295; SF-295, read-out: Log10 GI50 (converted)",> 100 µM
same,IC (TGI),"SF-295; SF-295, read-out: Log10 TGI (converted)",> 100 µM
same,GI50,"SNB-75; SNB-75, read-out: Log10 GI50 (converted)",> 100 µM
same,IC (TGI),"SNB-75; SNB-75, read-out: Log10 TGI (converted)",> 100 µM
same,GI50,LOX IMVI; [1],> 100 µM
same,IC (TGI),LOX IMVI; [2],< 100 µM
same,GI50,MALME-3M; [1],> 100 µM
same,IC (TGI),MALME-3M; [2],> 100 µM
same,GI50,"UACC-257; UACC-257, read-out: Log10 GI50 (converted)",0.0214 µM
same,IC (TGI),"UACC-257; UACC-257, read-out: Log10 TGI (converted)",> 100 µM
same,GI50,"UACC-62; UACC-62, read-out: Log10 GI50 (converted)",0.0224 µM
same,IC (TGI),"UACC-62; UACC-62, read-out: Log10 TGI (converted)",0.0562 µM
same,GI50,"IGROV1; IGROV-1, IGROV1, read-out: Log10 GI50 (converted)",0.0324 µM
same,IC (TGI),"IGROV1; IGROV-1, IGROV1, read-out: Log10 TGI (converted)",0.275 µM
same,GI50,OVCAR-4,0.135 µM
same,GI50,"OVCAR-5; OVCAR-5, read-out: Log10 GI50 (converted)",0.0132 µM
same,IC (TGI),"OVCAR-5; OVCAR-5, read-out: Log10 TGI (converted)",0.0776 µM
same,GI50,"OVCAR-8; OVCAR-8, read-out: Log10 GI50 (converted)",> 100 µM
same,IC (TGI),"OVCAR-8; OVCAR-8, read-out: Log10 TGI (converted)",> 100 µM
same,GI50,"786-0; 786-0, read-out: Log10 GI50 (converted)",> 100 µM
same,IC (TGI),"786-0; 786-0, read-out: Log10 TGI (converted)",> 100 µM
same,GI50,"A498; A498, read-out: Log10 GI50 (converted)",0.0186 µM
same,IC (TGI),"A498; A498, read-out: Log10 TGI (converted)",0.0427 µM
same,GI50,ACHN; [1],> 100 µM
same,IC (TGI),ACHN; [2],> 100 µM
same,GI50,SN12C; [1],> 100 µM
same,IC (TGI),SN12C; [2],> 100 µM
same,GI50,"TK-10; TK-10, read-out: Log10 GI50 (converted)",0.0282 µM
same,IC (TGI),"TK-10; TK-10, read-out: Log10 TGI (converted)",0.0813 µM
same,GI50,"PC-3; PC-3, read-out: Log10 GI50 (converted)",> 100 µM
same,IC (TGI),"PC-3; PC-3, read-out: Log10 TGI (converted)",> 100 µM
same,GI50,MCF7/ADR-RES; [1],> 100 µM
same,IC (TGI),MCF7/ADR-RES; [2],> 100 µM
same,GI50,HS 578T; [1],> 100 µM
same,IC (TGI),HS 578T; [2],> 100 µM
same,GI50,"BT-549; BT-549, read-out: Log10 GI50 (converted)",0.195 µM
same,IC (TGI),"BT-549; BT-549, read-out: Log10 TGI (converted)",> 100 µM
same,GI50,"HOP-92; HOP-92, read-out: Log10 GI50 (converted)",> 100 µM
same,CC50,"HOP-92; HOP-92, read-out: Log10 LC50 (converted)",> 100 µM
same,IC (TGI),"HOP-92; HOP-92, read-out: Log10 TGI",> 100 µM
